# Results reported in patent US20220184183A1, “PHARMACEUTICAL COMPOSITION, FOR PREVENTING OR TREATING INFLAMMATORY DISEASES, COMPRISING OSTEOCALCIN” (GENEROATH CO., LTD., priority 2019, published 2022).
# Where no end group is shown, it is not given here.
# Legend:
# Type in all cases: cell-based
# JNK, p38 MAPK, and NF-κB = test: Subcellular signaling in TNF-α-stimulated skeletal muscle cells (western blot); settings: C2C12; ucOCN 0.5 ng/ml pretreatment 1, 10, 30 minutes; TNF-α 10 ng/ml; FIG. 4
# Protocol: In order to observe the effect of undercarboxylated osteocalcin on the subcellular signaling process on the inflammatory response induced by TNF-α in skeletal muscle cells, the following experiment was performed.
# (§1) Undercarboxylated osteocalcin (ucOCN) was treated at a concentration of 0.5 ng/ml in the medium (DMEM medium containing 10% heat-inactivated fetal bovine serum (FBS), 100 U/mL of penicillin and […] of streptomycin, hereinafter the same), and skeletal muscle cell lines (C2C12) were prepared in three groups, and cultured and pre-treated at 5% CO2, 37° C. for 1 minute, 10 minutes, and 30 minutes, respectively.
# (§2) In order to induce an inflammatory response, each medium was treated with TNF-α 10 ng/ml, and cultured for 8 hours under the same conditions.
# For the cultured cells of each group, the protein amount and phosphorylation level of JNK, p38 MAPK, and NF-κB in each group were measured through western blot.
# [1] = tested on: macrophage cell lines (RAW 264.7); test: TNF-α-induced inflammatory cytokines and inflammatory mediating enzyme proteins in immune cells (ELISA, western blot); settings: ucOCN 0.5, 5, 50 ng/ml pretreatment 8, 24, 48 hours, then TNF-α 10 ng/ml 8 hours, FIGS. 7 and 8
# Protocol: First, macrophage cell lines (RAW 264.7) were obtained as immune cells. Undercarboxylated osteocalcin (ucOCN) was treated in a medium at four different concentrations of 0 ng/ml, 0.5 ng/ml, 5 ng/ml and 50 ng/ml, and macrophage cell lines were prepared in three groups and cultured and pre-treated at 5% CO2, 37° C. for 8 hours, 24 hours, and 48 hours, respectively.
# In order to induce an inflammatory response, each medium was treated with 10 ng/ml of TNF-α, and cultured for 8 hours under the same conditions to obtain a supernatant.
# In order to observe changes in the expression level of TNF-α-induced inflammatory cytokines (TNF-α and IL-6) and inflammatory mediating enzyme proteins (iNOS and COX-2) in immune cells by undercarboxylated osteocalcin, the following experiments were performed.
# In each supernatant obtained from Example 2.1 above, the concentrations of TNF-α, IL-1β and IL-6 were measured through ELISA, and the expression level of […] was identified through western blot.
# [2] = tested on: skeletal muscle cell line (C2C12); test: Level of reactive oxygen species in TNF-α-stimulated skeletal muscle cells (DAPI and CellRox staining); settings: ucOCN 0.5 and 5 ng/ml vs untreated group, TNF-α 10 ng/ml, FIG. 3
# Protocol: (§3) First, skeletal muscle cell lines (C2C12) were obtained. Undercarboxylated osteocalcin (ucOCN, purchased from Bachem, Switzerland) was treated in a medium (DMEM medium containing 10% heat-inactivated fetal bovine serum (FBS), 100 U/mL of penicillin and […] of streptomycin, hereinafter the same) at four different concentrations of 0 ng/ml, 0.5 ng/ml, 5 ng/ml and 50 ng/ml, and skeletal muscle cell lines (C2C12) were prepared in three groups and cultured and pre-treated at 5% CO2, 37° C. for 8 hours, 24 hours, and 48 hours, respectively.
# (§4) In order to induce an inflammatory response, each medium was treated with 10 ng/ml of TNF-α (purchased from Peprotech, USA), and cultured for 8 hours under the same conditions.
# In order to identify the level of reactive oxygen species (ROS) in the undercarboxylated osteocalcin-treated cells by being induced inflammatory response with TNF-α in skeletal muscle cells, the following experiment was performed.
# The cells obtained in Example 1.1 above were stained with DAPI and CellRox, and observed under a microscope.
# NF-κB = test: Inhibition of TNF-α-induced NF-κB activity in skeletal muscle cells (western blot, immunofluorescence)
# Protocol: In order to observe the effect of undercarboxylated osteocalcin on the activity of NF-κB induced by TNF-α in skeletal muscle cells, the following experiment was performed.
# as §1, §2
# For the cultured cells of each group, the phosphorylation level and the protein amounts in the nucleus of IκBα, IKK (hereinafter, intracytoplasmic) and P65 NF-κB in each group were measured through western blot, and immunofluorescence analysis for each group was performed.
# [3] = tested on: skeletal muscle cell line (C2C12); test: TNF-α-induced inflammatory cytokine production in skeletal muscle cells (ELISA, Real-Time PCR, western blot)
# Protocol: as §3, §4
# In order to observe the change in the expression level of TNF-α-induced inflammatory cytokines (TNF-α, IL-1β and IL-6) in skeletal muscle cells due to undercarboxylated osteocalcin, the following experiment was performed.
# In the cells obtained from Example 1.1 above, the concentrations of TNF-α, IL-1β and IL-6 were measured through ELISA, and the expression levels of RNA and protein of IL-1β and IL-6 were identified through Real-Time PCR and western blot.
# NF-κB promoter = test: TNF-α-induced NF-κB promoter (luciferase) activity; settings: stated in the description, no method given
substance,measurement,setting,value
"undercarboxylated osteocalcin (YLYQWLGAPVPYPDPLEPRREVCELNPDCDELADHIGFQEAYRRFYGPV; not fully specified; ends and bridges not checked; UniProt P02818 52-100, looked up) [osteocalcin in which at least one of the three gamma-carboxylglutamate residues is not γ-carboxylated; purchased from Bachem, Switzerland]",protein amount of NF-κB,"JNK, p38 MAPK, and NF-κB",significantly inhibited
same,protein amounts and phosphorylation levels of JNK and p38 MAPK,"JNK, p38 MAPK, and NF-κB",significantly inhibited
same,"production of inflammatory cytokines TNF-α, IL-1β, IL-6 and inflammatory mediating enzyme proteins iNOS and COX-2",[1],inhibited the production of inflammatory cytokines and inflammatory mediating enzyme proteins
same,level of reactive oxygen species,[2],significantly inhibited
same,cytoplasmic-to-nuclear translocation of NF-κB induced by TNF-α,"NF-κB; C2C12, immunofluorescence analysis, FIG. 6",inhibited cytoplasmic-to-nuclear translocation of NF-κB
same,"PHOPHO-IκBα and total IκBα (TNF-α alone: phospho increased, total decreased)","NF-κB; C2C12 cytoplasm, ucOCN 0.5 ng/ml, TNF-α 10 ng/ml, FIG. 5",showed the opposite result
same,IL-1β production,"[3]; TNF-α 10 ng/ml, FIG. 1",inhibitory effect of IL-1β production among inflammatory cytokines was remarkably shown
same,IL-1β production (protein amount),"[3]; all treatment concentrations of ucOCN (0.5, 5, 50 ng/ml), FIG. 2",remarkable production inhibitory effect
same,inhibition of inflammatory cytokine production by treatment time,"[3]; group treated with ucOCN for 8 hours and 48 hours, FIG. 1",remarkably excellent inhibitory effect
same,TNF-α (protein amount),"[3]; group treated with ucOCN for 8 hours, FIG. 2",excellent inhibitory effect
same,IL-6 (protein amount),"[3]; ucOCN 0.5 ng/ml and 5 ng/ml within 24 hours, FIG. 2",remarkable inhibitory effect
same,"production of inflammatory cytokines TNF-α, IL-1β and IL-6","[3]; ucOCN 0.5, 5, 50 ng/ml pretreatment 8, 24, 48 hours, then TNF-α 10 ng/ml 8 hours, FIG. 1",inhibited the production of inflammatory cytokines
same,TNF-α-induced NF-κB luciferase activity,NF-κB promoter,significantly inhibits
